We go through seven molecules from article PMC10065799, “High-throughput profiling of sequence recognition by tyrosine kinases and SH2 domains using bacterial peptide display” (eLife, 2023).

Square brackets hold non-standard residues; d marks the D form. pY = N[C@@H](Cc1ccc(OP(=O)(O)O)cc1)C(=O)O

The test system of one experiment is Grb2 SH2 domain. The experiment in a line: pTyr-Var library SH2 domain screen with SH2-dynabeads (enrichment scores).
For a further experiment, the system named is Jak2. The experiment in a line: pTyr-Var library bacterial peptide display kinase screen (enrichment scores). It counts as biochemical, human.
For the next experiment, the system named is EPHB1 kinase domain. Described as above. It counts as biochemical, human.
The test system of another experiment is Hck kinase domain. The description is as above. It counts as biochemical, human.
Experiment [1] has as its target T1, c-Src kinase domain (Homo sapiens, UniProt P12931). The description is as above. Type of experiment: biochemical. To be noted: for Screen: sheet "Src".
Another experiment concerns Fyn kinase domain. The description is as above. Type of experiment: biochemical, human.
The test system of a further experiment is EPHB2 kinase domain. The experiment is described as above. It counts as biochemical, human. To be noted: for Screen: sheet EPHB2, effect of variant peptide relative to its reference peptide in the pTyr-Var library screen (enrichment scores).
The subject of another experiment is MERTK kinase domain. The experiment is described as above. It counts as biochemical, human.
The next experiment concerns FGFR1 kinase domain. The experiment is described as above. It counts as biochemical, human.
Another experiment relates to FGFR3 kinase domain. The experiment is described as above. Type of experiment: biochemical, human.
The subject of the next experiment is AncSZ kinase domain. Described as above. Type of experiment: biochemical.
A further experiment deals with Fer kinase domain. The description is as above. It counts as biochemical, mouse. The note with it: for Screen: sheet "Fer".
The next experiment has as its system Fes. The description is as above. It counts as biochemical.
Experiment [2] deals with T2, c-Abl kinase domain (Mus musculus, UniProt P00520).
T2 sequence (P00520 242-493 limits assumed): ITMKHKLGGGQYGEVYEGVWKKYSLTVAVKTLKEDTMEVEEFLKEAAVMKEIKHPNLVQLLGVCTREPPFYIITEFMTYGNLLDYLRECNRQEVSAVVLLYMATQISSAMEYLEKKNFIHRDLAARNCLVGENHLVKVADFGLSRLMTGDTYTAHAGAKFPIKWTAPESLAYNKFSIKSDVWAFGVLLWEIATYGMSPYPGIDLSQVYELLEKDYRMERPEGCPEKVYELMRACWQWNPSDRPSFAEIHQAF
Described as above. It counts as biochemical.

The subject of the next experiment is SHP2 C-SH2 domain. The experiment in a line: pTyr-Var library SH2 domain screen with SH2-dynabeads (enrichment scores).
A further experiment addresses c-Src SH2 domain (Homo sapiens, UniProt P12931). Described as above. The note with it: sheet c-Src.
The target in experiment [3] is T1, c-Src kinase domain. Briefly: RP-HPLC assay to measure peptide phosphorylation kinetics. Type of experiment: biochemical. The note with it: purified peptide substrate.
The target of experiment [4] is T2, c-Abl kinase domain. The description is as above. Type of experiment: biochemical. To be noted: purified peptide substrate.
Experiment [5] deals with mouse c-Abl kinase domain (residues 232-502) (mouse) (UniProt P00520).
The target of experiment [6] is human c-Src SH2 domain (residues 143-250) (human, UniProt P12931-1 143-250, biotin on the Avi tag (co-expression with the biotin ligase BirA)). The experiment in a line: fluorescence polarisation; competition: unlabeled phosphopeptide serially diluted against 30 nM fluorescent peptide and 240 nM (1.5 x KD) c-Src SH2; same buffer; 25 °C; cubic binding equation. To be noted: both partners purified.

Where [7] appears, read: pTyr-Var library, enrichment score, replicate 1.
Where [8] appears, read: pTyr-Var library, enrichment score, replicate 3.
Setting [9] is: variant versus reference peptide.
Where [10] appears, read: variant versus reference peptide, significant hit TRUE/FALSE.
[11] abbreviates: mean of log2(variant) minus mean of log2(reference).
Where [12] appears, read: mean of log2 enrichment of variant peptide, n = 4.
Setting [13] is: pTyr-Var library, enrichment score, replicate 4.
Setting [14] is: mean of log2 of enrichment over R1-R4.
[15] abbreviates: mean of log2 enrichment of variant peptide, n = 5.
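For AncSZ hit? in this document: Hit requires p below 0.05 and at least twofold variant vs reference change plus filters.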
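For Fer hit? in this document: Hit requires p below 0.05 and at least twofold variant vs reference change plus filters.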
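For Fyn hit? in this document: Hit requires p below 0.05 and at least twofold variant vs reference change plus filters.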
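For c-Src hit? in this document: Hit requires p below 0.05 and at least twofold variant vs reference change plus filters.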

Chain of mouse c-Abl kinase domain (residues 232-502) (mouse) (P00520 232-502): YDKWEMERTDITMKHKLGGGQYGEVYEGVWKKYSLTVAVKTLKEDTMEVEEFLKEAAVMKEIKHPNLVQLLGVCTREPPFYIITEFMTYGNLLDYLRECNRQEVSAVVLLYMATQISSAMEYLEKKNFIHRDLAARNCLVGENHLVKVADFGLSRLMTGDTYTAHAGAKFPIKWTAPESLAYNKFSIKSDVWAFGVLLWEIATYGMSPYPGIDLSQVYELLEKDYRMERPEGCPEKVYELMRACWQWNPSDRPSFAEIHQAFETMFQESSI

Turning to ATGLIYIGSHD [AASDH_Y870_T865A], the difference in the experiment on Grb2 SH2 domain (Grb2 SH2, mean of log2(variant) minus mean of log2(reference)) is on record as -0.4428; in the experiment with EPHB1 kinase domain (setting [11]) it was 0.11; in the experiment on EPHB2 kinase domain (setting [11]) it was 0.3789; in the experiment with MERTK kinase domain (setting [11]), 0.7784; with FGFR1 kinase domain (setting [11]), -0.06079; with FGFR3 kinase domain (setting [11]) it was 0.03027. In addition, the difference in the experiment with SHP2 C-SH2 domain (SHP2-C SH2, mean of log2(variant) minus mean of log2(reference)) is on record as -0.2085; on c-Src SH2 domain (setting [11]), -0.1239. Besides, the “mean of log2(variant)” value with Grb2 SH2 domain (Grb2 SH2, mean of log2 enrichment of variant, R1-R3) is reported as -0.4021; in the experiment with EPHB1 kinase domain (setting [12]), -0.4876; in the experiment with EPHB2 kinase domain (setting [12]), -0.4994; in the experiment with MERTK kinase domain (setting [12]), -0.9082; in the experiment with FGFR1 kinase domain (setting [15]) it was -1.25; in the experiment on FGFR3 kinase domain (setting [15]) it was -0.6189. The “mean of log2(variant)” value in the experiment with SHP2 C-SH2 domain (SHP2-C SH2, mean of log2 enrichment of variant, R1-R3) is on record as -0.9356; on c-Src SH2 domain (mean of log2 enrichment of variant peptide, R1-R3), -0.9155. The “hit?” value was “FALSE” in the experiment on Grb2 SH2 domain (Grb2 SH2, variant versus reference significant hit call) and “FALSE” in the experiment on SHP2 C-SH2 domain (SHP2-C SH2, variant versus reference significant hit call). Further, the “Jak2 mean of log2(enrichment)” value in the experiment on Jak2 (mean of log2 of enrichment over R1-R3) was -0.3116. Further, the “Jak2 enrich. R1” value in the experiment on Jak2 (setting [7]) stood at 0.8629. In addition, in the experiment on Jak2 (setting [8]), the “Jak2 enrich. R3” value is listed as 0.7054. Besides, the “Jak2 difference (mean log2 variant - mean log2 reference)” value in the experiment with Jak2 (setting [9]) was determined as 0.1735. Besides, in the experiment on Jak2 (setting [10]), the “Jak2 hit?” value is on record as “FALSE”. The “Hck mean of log2(enrichment)” value in the experiment on Hck kinase domain (mean of log2(variant) / mean of log2(reference), R1-R4) was 0.4694. Besides, the “Hck enrich. R1” value with Hck kinase domain (setting [7]) came to 0.8875. In the experiment with Hck kinase domain (setting [8]), the “Hck enrich. R3” value is 0.3766. Further, the “Hck enrich. R4” value in the experiment with Hck kinase domain (setting [13]) turned out to be 0.194. Also, in the experiment with Hck kinase domain (setting [9]), the “Hck difference (variant - reference)” value is listed as 0.009668. In addition, in the experiment on Hck kinase domain (setting [10]), the “Hck hit?” value is given as “FALSE”. Also, the “c-Src mean of log2(enrichment)” value at c-Src kinase domain [1] (setting [14]) is reported as -1.071. Besides, the “c-Src enrich. R1” value at c-Src kinase domain [1] (setting [7]) turned out to be 0.5345. Also, the “c-Src enrich. R3” value at c-Src kinase domain [1] (setting [8]) was found to be 0.3128. For the same molecule, at c-Src kinase domain [1] (setting [13]), the “c-Src enrich. R4” value turned out to be 0.6339. Besides, the “c-Src difference (mean log2 variant - mean log2 reference)” value at c-Src kinase domain [1] (setting [9]) was determined as 0.2235. Also, the “c-Src hit?” value at c-Src kinase domain [1] (setting [10]) is on record as “FALSE”. The “Fyn mean of log2(enrichment)” value in the experiment on Fyn kinase domain (setting [14]) was -1.279. In the experiment with Fyn kinase domain (setting [7]), the “Fyn enrich. R1” value was determined as 0.5717. The “Fyn enrich. R3” value with Fyn kinase domain (setting [8]) is recorded as 0.2668. Further, the “Fyn enrich. R4” value with Fyn kinase domain (setting [13]) was determined as 0.4414. In addition, the “Fyn difference (mean log2 variant - mean log2 reference)” value in the experiment with Fyn kinase domain (setting [9]) came to 0.2007. The “Fyn hit?” value in the experiment with Fyn kinase domain (setting [10]) is recorded as “FALSE”. The “AncSZ mean of log2(enrichment)” value with AncSZ kinase domain (mean of log2 of enrichment over R1-R5) is -0.2868. Also, in the experiment with AncSZ kinase domain (setting [7]), the “AncSZ enrich. R1” value is recorded as 0.8707. In addition, the “AncSZ enrich. R3” value with AncSZ kinase domain (setting [8]) is 0.8843. The “AncSZ enrich. R4” value in the experiment on AncSZ kinase domain (setting [13]) is recorded as 0.9628. Moreover, the “AncSZ enrich. R5” value in the experiment with AncSZ kinase domain (pTyr-Var library, enrichment score, replicate 5) is on record as 0.6734. The “AncSZ difference (mean log2 variant - mean log2 reference)” value with AncSZ kinase domain (setting [9]) was determined as 0.1813. In the experiment with AncSZ kinase domain (setting [10]), the “AncSZ hit?” value is recorded as “FALSE”. For the same molecule, the “Fer mean of log2(enrichment)” value with Fer kinase domain (setting [14]) is recorded as -1.02. In the experiment with Fer kinase domain (setting [7]), the “Fer enrich. R1” value is 0.4993. In addition, in the experiment with Fer kinase domain (setting [8]), the “Fer enrich. R3” value amounted to 0.7968. Besides, the “Fer enrich. R4” value in the experiment with Fer kinase domain (setting [13]) was determined as 0.4647. The “Fer difference (mean log2 variant - mean log2 reference)” value in the experiment with Fer kinase domain (setting [9]) was 0.2779. Besides, in the experiment with Fer kinase domain (setting [10]), the “Fer hit?” value was “FALSE”. In the experiment on Fes (mean of log2 of enrichment over R1-R6), the “Fes mean of log2(enrichment)” value stood at 0.1901. For the same molecule, the “Fes enrichment (mean)” value in the experiment on Fes (pTyr-Var library, enrichment score, mean of replicates R1-R6) is listed as 1.145. Besides, the “Fes difference (mean log2 variant - mean log2 reference)” value with Fes (setting [9]) was determined as 0.6008. In addition, the “c-Abl mean of log2(enrichment)” value at c-Abl kinase domain [2] (setting [14]) is reported as -0.2804. In addition, the “c-Abl enrich. R1” value on c-Abl kinase domain [2] (setting [7]) is 0.635. Also, at c-Abl kinase domain [2] (setting [8]), the “c-Abl enrich. R3” value was determined as 0.7155. Moreover, the “c-Abl enrich. R4” value on c-Abl kinase domain [2] (setting [13]) is 1.499. Further, the “c-Abl hit?” value at c-Abl kinase domain [2] (setting [10]) is “FALSE”.
As to “Ac-EGWQVYRLGAR-NH2 [MISP_Y95, pTyr-Var library phosphosite peptide, non-canonical c-Src substrate]”, the “Phosphorylation Rate” value on c-Src kinase domain [3] is 0.701 s⁻¹.
Take “Ac-LFSEYASVQV-NH2 [SIRPA_Y496_P491L, pTyr-Var library variant peptide, non-canonical c-Abl substrate]”: the “Screen (variant relative to reference peptide, measured in the pTyr-Var library screen)” value in the experiment with EPHB1 kinase domain (sheet "EPHB1", variant seq vs reference seq, bacterial peptide display enrichment) is 0.2454. The Screen on c-Src kinase domain [1] (variant peptide versus its reference peptide in the pTyr-Var library screen) is listed as -0.1318; in the experiment with EPHB2 kinase domain it was 0.1232; in the experiment on Fer kinase domain (variant peptide relative to its reference peptide, pTyr-Var library screen enrichment), 0.5649. In addition, the “Phosphorylation Rate” value at c-Abl kinase domain [4] turned out to be 0.182 s⁻¹.
Consider “Ac-SVEELYAIPPD-NH2 [PEAK1_Y797, pTyr-Var library phosphosite peptide]”, for which the “Phosphorylation Rate” value at c-Abl kinase domain [4] amounted to 0.407 s⁻¹.
For “Ac-VASSLYDIFAR-NH2 [GLB1_Y294_L297F, pTyr-Var library variant phosphosite peptide]”, the Screen on c-Src kinase domain [1] (effect of the variant peptide relative to its reference peptide in the pTyr-Var library screen) is 1.173; in the experiment on EPHB2 kinase domain it was 0.8382; in the experiment with Fer kinase domain (value of the variant peptide against its reference peptide in the pTyr-Var library screen with Fer), 0.6922. Also, the “Phosphorylation Rate” value at c-Src kinase domain [3] came to 1.477 s⁻¹.
Turning to Ac-GAPEVIYATPGAKKKG-NH2 [AblTide (2014) peptide Ac-…-NH2], the KM (μM) of phosphorylation, Michaelis-Menten analysis, ADP-Quest assay in [5] is 35 µM.

B1: CCDC39_Y593 phosphopeptide Ac-QRKQQL(pY)TAMEEG-NH2 (peptide)
peptide: Ac-QRKQQL[pY]TAMEEG-NH2
SMILES: CSCC[C@H](NC(=O)[C@H](C)NC(=O)[C@@H](NC(=O)[C@H](Cc1ccc(OP(=O)(O)O)cc1)NC(=O)[C@H](CC(C)C)NC(=O)[C@H](CCC(N)=O)NC(=O)[C@H](CCC(N)=O)NC(=O)[C@H](CCCCN)NC(=O)[C@H](CCCNC(=N)N)NC(=O)[C@H](CCC(N)=O)NC(C)=O)[C@@H](C)O)C(=O)N[C@@H](CCC(=O)O)C(=O)N[C@@H](CCC(=O)O)C(=O)NCC(N)=O
notes: source: synthetic peptide (synthesized in-house, RP-HPLC purified)
For the molecule B1, in experiment [6], the binding result is reported as “binds”.
